From ChEMBL document CHEMBL4152321, “Synthesis and antiplasmodial activity of glyco-conjugate hybrids of phenylhydrazono-indolinones and glycosylated 1,2,3-triazolyl-methyl-indoline-2,3-diones” (Eur J Med Chem, 2018) come the findings set out here.

For data set [1], the system named is Plasmodium falciparum. The data set is described as follows: Antiplasmodial activity against chloroquine-resistant Plasmodium falciparum K1 infected in human erythrocytes after 72 hrs by SYBR Green 1 staining based fluorescence assay. Format: functional, organism-based. Particulars: K1, 72 h.
Data set [2] is described as follows: Cytotoxicity against African green monkey Vero cells after 3 days by resazurin dye based fluorescence assay. Particulars: chlorocebus sabaeus. The data set is classed as cell-based.
Data set [3] is described as follows: Selectivity index, ratio of CC50 for African green monkey Vero cells to IC50 for chloroquine-sensitive Plasmodium falciparum 3D7 infected in human erythrocytes. The data set is classed as toxicity, cell-based. To be noted: read-out: Ratio CC50/IC50.
Data set [4] has as its system Plasmodium falciparum. The data set is described as follows: Antiplasmodial activity against chloroquine-sensitive Plasmodium falciparum 3D7 infected in human erythrocytes after 72 hrs by SYBR Green 1 staining based fluorescence assay. Format: functional, organism-based. Particulars: 3D7, 72 h.
A short description of data set [5]: Selectivity index, ratio of CC50 for African green monkey Vero cells to IC50 for chloroquine-resistant Plasmodium falciparum K1 infected in human erythrocytes. Format: toxicity, cell-based. Particulars: read-out: Ratio CC50/IC50.

As for `CC(=O)C[C@H]1O[C@@H](On2cc(CN3C(=O)/C(=N\Nc4ccc(C#N)cc4)c4ccccc43)nn2)[C@H](OC(C)=O)[C@@H](OC(C)=O)[C@H]1OC(C)=O`, the 50% inhibitory concentration (IC50) (as a rule, the point on the concentration scale where inhibition reaches its midpoint) is 4.28 µM in the data set on Plasmodium falciparum [1] and 3.67 µM in the data set with Plasmodium falciparum [4]. In data set [2], the CC50 (as a rule, the concentration giving 50% cytotoxicity) at 72 h was 75.5 µM. Moreover, the results for the selectivity ratio in data set [3] and in data set [5] were 20.6 and 17.6, respectively.
On to `COc1ccc(N/N=C2\C(=O)N(Cc3cn(O[C@@H]4O[C@H](CO)[C@H](O)[C@H](O)[C@H]4O)nn3)c3ccccc32)cc1`, for which the IC50 in the data set with Plasmodium falciparum [1] turned out to be 5.2 µM; in the data set with Plasmodium falciparum [4], 3.46 µM. Also, the 50% cytotoxic concentration (CC50) at 72 h in data set [2] was found to be 76.2 µM. The selectivity ratio in data set [3] is 22; in data set [5] it was 14.7.
Take `CC(=O)C[C@H]1O[C@@H](On2cc(CN3C(=O)/C(=N\Nc4ccc(Br)cc4)c4ccccc43)nn2)[C@H](OC(C)=O)[C@@H](OC(C)=O)[C@@H]1OC(C)=O`: the 50% inhibitory concentration (IC50) stood at 3.84 µM with Plasmodium falciparum [1] and 3.79 µM in the data set with Plasmodium falciparum [4]. Further, the CC50 at 72 h in data set [2] was 116 µM. Further, the figures for the selectivity ratio in data set [3] and in data set [5] were 30.7 and 30.3, respectively.
For `CC(=O)C[C@H]1O[C@@H](On2cc(CN3C(=O)C(=O)c4ccccc43)nn2)[C@H](OC(C)=O)[C@@H](OC(C)=O)[C@@H]1OC(C)=O` the same measures were more than 10 µM, 3.54 µM, 137 µM, 38.6 and less than 13.7.
With `O=C1/C(=N\Nc2ccc(F)cc2)c2ccccc2N1Cc1cn(O[C@@H]2O[C@H](CO)[C@H](O)[C@H](O)[C@H]2O)nn1`, the IC50 in the data set with Plasmodium falciparum [1] is 3.23 µM; in the data set on Plasmodium falciparum [4], 6.64 µM. The molecule also returned a 50% cytotoxic concentration (CC50) at 72 h in data set [2] of 92.1 µM. In addition, the selectivity ratio is 13.9 in data set [3] and 28.5 in data set [5].
For `CC(=O)C[C@H]1O[C@@H](On2cc(CN3C(=O)/C(=N\Nc4ccc(Br)cc4)c4ccccc43)nn2)[C@H](OC(C)=O)[C@@H](OC(C)=O)[C@H]1OC(C)=O` the same measures were 2.91 µM, 2.09 µM, 83.4 µM, 39.9 and 28.6.
Regarding `O=C1/C(=N\Nc2ccccc2)c2ccccc2N1Cc1cn(O[C@@H]2O[C@H](CO)[C@@H](O)[C@H](O)[C@H]2O)nn1`, the half-inhibitory concentration (IC50) in the data set on Plasmodium falciparum [1] was found to be 8.11 µM; with Plasmodium falciparum [4] it was 4.7 µM. Further, the CC50 at 72 h in data set [2] is 88.5 µM. Also, the selectivity ratio in data set [3] was determined as 18.8; in data set [5], 10.9.
The like results for `CC1(C)O[C@H]2O[C@H](Cn3cc(CN4C(=O)/C(=N\Nc5cccc(Cl)c5)c5ccccc54)nn3)[C@H](O)[C@H]2O1` were, in that order, 3.42 µM, 4.47 µM, 70 µM, 15.7 and 20.5.
The like results for `CC(=O)C[C@H]1O[C@@H](On2cc(CN3C(=O)/C(=N\Nc4ccc(C#N)cc4)c4ccccc43)nn2)[C@H](OC(C)=O)[C@@H](OC(C)=O)[C@@H]1OC(C)=O` were, in that order, 5.72 µM, 3.33 µM, 75.4 µM, 22.6 and 13.2.
For `CC1(C)O[C@H]2O[C@H](Cn3cc(CN4C(=O)/C(=N\Nc5ccc(Br)cc5)c5ccccc54)nn3)[C@H](O)[C@H]2O1` the same measures were 3.52 µM, 4.05 µM, 72.9 µM, 18 and 20.7.
